pEC50: −log10 of the molar value.
Columns and labels:
TtgR = target: T1, TtgR (Pseudomonas putida, UniProt Q88N29); assay: TtgR-regulated in vitro transcription of InvadeR with TMSD fluorescence output; format: biochemical; settings: TtgR-regulated reactions, with versus without ligand
T1 construct: made in house; host or cells: E. coli Rosetta 2(DE3)pLysS, pET-28c backbone (pJBL721)
Method: (§1) In addition to TetR, we chose TtgR [44] and SmtB [45] as representative aTFs of the MarR family and SmtB/ArsR family, respectively. We placed the cognate operator sequence of each aTF 2-bp downstream of the T7 promoter and immediately upstream of the InvadeR sequences (FIG. 4a-c). When tetracycline was used to induce TetR-regulated reactions, we observed a strong and robust fluorescent signal visible in ˜10 minutes (FIG. 4d, FIG. 13a). […] We note that we observed a slight decrease in the induction speed from the TtgR-regulated reactions compared to that of the TetR-regulated reactions, likely due to the reduced ttgO DNA template concentration needed to accommodate TtgR's relatively weak binding affinity to its operator sequence.
(§2) Regulated IVT reactions additionally included a purified aTF at the indicated concentration and were equilibrated at 37° C. for ˜10 minutes. Immediately prior to plate reader measurements, 2 ng of T7 RNAP and, optionally, a ligand at the indicated concentration were added to the reaction. Reactions were then characterized on a plate reader as described in Plate reader quantification and micromolar equivalent fluorescein (MEF) standardization.

SmtB = target: T2, SmtB (Synechococcus elongatus, UniProt P30340); assay: SmtB-regulated in vitro transcription of InvadeR with TMSD fluorescence output; format: biochemical; settings: improved smtO-hairpin-InvadeR design, low background signal
T2 construct: 6xHis (C); made in house; host or cells: E. coli Rosetta 2(DE3)pLysS, pET-28c backbone (pJBL725)
T2 sequence (P30340 with tags, fused parts or gaps): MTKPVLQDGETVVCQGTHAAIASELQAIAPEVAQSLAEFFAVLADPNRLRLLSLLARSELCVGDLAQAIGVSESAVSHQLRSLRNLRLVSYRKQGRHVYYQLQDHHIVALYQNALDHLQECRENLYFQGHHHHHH
Method: as §1
We were immediately successful in adapting the system to TetR and TtgR (FIG. 4a, b). […]
as §2

TetR = target: T3, TetR (Escherichia coli, UniProt P04483); assay: biochemical
T3 construct: made in house; host or cells: E. coli Rosetta 2(DE3)pLysS, pET-28c backbone (pJBL701)
Method: To test if this spacing remained important in the TMSD platform, we used TetR as our model aTF to determine the optimum spacing for efficient repression in the presence of TetR and efficient transcription in the absence of TetR [41]. We used the native sequence that follows the canonical T7 RNAP promoter as a spacer in 2-bp increments from 0 to 10-bp, immediately followed by the tetO sequence and InvadeR sequence (FIG. 3a). IVT reactions were set up using 50 nM DNA template with or without purified recombinant TetR protein in 100-fold excess of the DNA template. […]
Using the 2-bp spacer, we next determined whether TetR can be de-repressed with its cognate ligand, anhydrotetracycline (aTc) to allow transcription of InvadeR (FIG. 3c). […]
Homemade IVT reactions were set up by adding the following components listed at their final concentration: IVT buffer (40 mM Tris-HCl pH 8, 8 mM MgCl2, 10 mM DTT, 20 mM NaCl, and 2 mM spermidine), 11.4 mM NTPs pH 7.5, 0.3 U thermostable inorganic pyrophosphatase (#M0296S, New England Biolabs), transcription template, DNA gate(s) and MilliQ ultrapure H2O to a total volume of 20 μL. […] Immediately prior to plate reader measurements, 2 ng of T7 RNAP and, optionally, a ligand at the indicated concentration were added to the reaction.

T1 sequence (Q88N29 other isoform, or with tags, fused parts or gaps): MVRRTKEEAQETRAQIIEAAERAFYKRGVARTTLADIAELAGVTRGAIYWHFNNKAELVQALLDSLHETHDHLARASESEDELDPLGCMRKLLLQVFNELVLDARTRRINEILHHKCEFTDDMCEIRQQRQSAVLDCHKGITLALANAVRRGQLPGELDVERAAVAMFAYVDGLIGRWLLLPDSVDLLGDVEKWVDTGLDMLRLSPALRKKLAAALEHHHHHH

Compound: O=C1C[C@@H](c2ccc(O)cc2)Oc2cc(O)cc(O)c21 [naringenin]
- fluorescence activation by ligand (TtgR): robust fluorescence activation only in the presence of the ligand

Compound: O=S(=O)([O-])[O-].[Zn+2] [ZnSO4]
- fluorescence activation by ligand (SmtB): clear activation

Compound: Cc1c2c(c(O)c3c(O)cccc13)C(=O)[C@]1(O)C(=O)C(C(N)=O)=C(O)[C@@H](N(C)C)[C@@H]1C2 [aTc, anhydrotetracycline]
- pEC50 (TetR): 5.30 to 5.60

Source: patent publication US20230332252A1, “CELL-FREE BIOSENSORS WITH DNA STRAND DISPLACEMENT CIRCUITS AND POLYMERASE STRAND RECYCLING (PSR)” (Northwestern University, priority 2021, published 2023)
